# According to BindingDB's records for patent US20240383913 (Chinese Academy of Sciences, 2024):
# Experiments:
# [1] = biological target: 5-hydroxytryptamine receptor 2A (Homo sapiens, UniProt P28223); assay: Affinity of Compounds for 5-HT2A Receptors
# Experimental: The affinity of the compounds of the present disclosure for the 5-HT2A receptors was determined by the method of radioligand competition experiment. In the first step, a cell membrane component containing specific 5-HT2A receptor was prepared. A 10 cm dish was used for transfection with 10 ng of the 5-HT2A receptor and 40 μL of PEI. After 48 hours, the 10 cm dish was taken out from the cell incubator and the cultured cells had expressed the 5-HT2A receptor. A vacuum pump was used to suck off the culture medium, 3 mL of lysis buffer was added to each culture dish, and the cells were placed in a 4° C. cold room for 10 minutes. After the cells were detached, the cells were transferred to a 15 mL centrifuge tube and centrifuged at 1500 rpm for 5 minutes at 4° C., and the supernatant was discarded. The cell pellet was transferred to a tissue homogenizer, and 3 mL of lysis buffer was added and fully ground until the cells were broken. Then, cell suspension was equally aliquoted into several EP tubes, centrifuged at 12000 rpm for 5 minutes at 4° C., and the supernatant was discarded. The precipitate was the cell membrane component containing the 5-HT2A receptor. […] First, a standard binding buffer was added to the cell membrane component containing the 5-HT2A receptor, and the cell membrane was disrupted and resuspended with an electric tissue homogenizer. […]
# D(2) dopamine receptor = D(2) dopamine receptor (Homo sapiens, UniProt P14416); assay: Affinity of Compounds for Dopamine D2 Receptors
# D(2) dopamine receptor, sequence (P14416 whole entry): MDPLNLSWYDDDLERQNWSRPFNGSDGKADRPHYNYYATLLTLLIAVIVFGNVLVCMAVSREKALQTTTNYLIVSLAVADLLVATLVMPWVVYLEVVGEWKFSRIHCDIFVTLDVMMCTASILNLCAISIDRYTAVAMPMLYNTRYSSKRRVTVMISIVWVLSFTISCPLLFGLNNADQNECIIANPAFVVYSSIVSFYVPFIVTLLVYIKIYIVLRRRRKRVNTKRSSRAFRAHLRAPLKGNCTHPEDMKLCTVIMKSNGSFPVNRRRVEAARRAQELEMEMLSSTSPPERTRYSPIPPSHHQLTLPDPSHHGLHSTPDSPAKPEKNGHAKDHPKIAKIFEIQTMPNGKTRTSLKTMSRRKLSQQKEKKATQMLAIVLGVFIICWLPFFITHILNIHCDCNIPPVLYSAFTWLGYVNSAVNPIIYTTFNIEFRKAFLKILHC
# Experimental: The affinity of the compounds of the present disclosure for the dopamine D2 receptors was determined by the method of radioligand competition experiment. In the first step, a cell membrane component containing specific dopamine D2 receptors was prepared. A 10 cm culture dish was used for transfection with 10 ng of the dopamine D2 receptors and 40 μL of polyethylenimine (PEI hereafter). After 48 hours, the 10 cm culture dish was taken out from the cell culture incubator and the cultured cells had expressed the dopamine D2 receptors. A vacuum pump was used to suck off the culture medium, 3 mL of lysis buffer was added to each culture dish, and the cells were placed in a 4° C. cold room for 10 minutes. After the cells were detached, the cells were transferred to a 15 mL centrifuge tube and centrifuged at 1500 rpm for 5 minutes at 4° C., and the supernatant was discarded. The cell pellet was transferred to a tissue homogenizer, and 3 mL of lysis buffer was added and fully ground until the cells were broken. Then, cell suspension was equally aliquoted into several EP tubes, centrifuged at 12000 rpm for 5 minutes at 4° C., and the supernatant was discarded. The precipitate was the cell membrane component containing the dopamine D2 receptors. […]
# 5-hydroxytryptamine receptor 2A, sequence (P28223 whole entry): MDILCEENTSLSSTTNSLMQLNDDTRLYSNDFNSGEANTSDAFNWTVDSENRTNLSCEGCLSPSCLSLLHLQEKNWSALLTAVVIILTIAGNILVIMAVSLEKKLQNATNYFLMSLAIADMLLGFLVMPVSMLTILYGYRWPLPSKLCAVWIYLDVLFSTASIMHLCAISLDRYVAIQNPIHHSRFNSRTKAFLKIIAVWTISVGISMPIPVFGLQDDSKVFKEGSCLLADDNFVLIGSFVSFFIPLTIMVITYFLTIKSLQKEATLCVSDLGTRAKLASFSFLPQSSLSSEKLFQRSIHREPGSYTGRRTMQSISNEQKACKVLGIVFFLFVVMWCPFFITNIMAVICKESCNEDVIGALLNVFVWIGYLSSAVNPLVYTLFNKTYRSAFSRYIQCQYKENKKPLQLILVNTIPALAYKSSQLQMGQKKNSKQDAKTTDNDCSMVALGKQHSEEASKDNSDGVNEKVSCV
structure (smiles),measurement,setting,value
"c1ccc(-c2cccc(CN3CCN4c5cccc6scc(c56)CC4C3)c2)cc1 (configuration not stated) [US20240383913, Compound I-7]",Ki,[1],910 nM
same,Ki,D(2) dopamine receptor,310 nM
